From publication PMC12027554, “Inhibition of ABCG2 by SCO-101 Enhances Chemotherapy Efficacy in Cancer” (International Journal of Molecular Sciences, 2025)
Read-outs that look alike come from different tables or passages of the source.

Assays:
HT29SN-38 cells = assay: Cell viability assay (MTT / CCK-8), SN-38-resistant HT29; assay type: cell-based, human
Description: (§1) Cells were seeded at a density of 0.2–1 × 10^4 cells/well into 96-well plates. One day after seeding, treatments were performed in triplicate for 72 h, or as otherwise indicated in the relevant panel/figure legend and kept at 37 °C/5% CO2. Growth medium alone (“untreated” cells) or DMSO was used as a control.
For MTT assays, media were replaced at the final timepoint with 100 μL of 1:10 MTT reagent (0.5 mg/mL in PBS) diluted in growth medium, and plates were incubated for 3 h. A total of 100 μL/well of stop buffer (50 g Sodium Dodecyl Sulfate, 245 mL ddH2O, 5 mL 1N HCl) was added and plates incubated for 24 h to let colored formazan crystals develop. Optical densities (ODs) were measured with a PowerWave^TM Microplate spectrophotometer (BioTek, Winooski, VT, USA) at 570 nm and 670 nm (background).
For CCK-8 assays, 100 μL of 1:10 CCK-8 reagent (pevonedistat-treated HT29 cells) diluted in medium was added to each well and cells incubated for 1–2 h at 37 °C. OD values were measured at 450 nm with a VersaMax microplate spectrophotometer (Molecular Devices, San Jose, CA, USA).
Background values were subtracted prior to further analysis. The percentage of cell viability was expressed as relative values versus untreated cells as determined by the various assays. EC50/IC50 values were calculated using GraphPad Prism (v10.4.1) and the in-built non-linear regression [log (inhibitor) vs. response—variable slope (four parameters)] calculation. For determination of synergy scores, the online tool SynergyFinder+ (https://synergyfinder.org access date 15 February 2025) was employed following 4 × 4- or 6 × 6-matrix dose-escalation cell viability experiments. Doses of drugs are indicated in the relevant figure legends and ranges have been chosen based on the response of cells to single-drug dose-dependent experiments. Synergy scores were calculated using the ZIP model, which takes the advantages of both the Loewe additivity and the Bliss independence models, aiming at a systematic assessment of various types of drug interaction patterns that may arise in a high-throughput drug combination screening.

HT29PAR cells = assay: Cellular dye efflux assay (Hoechst 33342), parental cells; assay type: cell-based, human; conditions: SCO-101 20 µM, Ko-143 1 µM
Description: Twenty-four hours before the experiments, cells were seeded into 96-well Nunclon^TM plates at a density of 6000 (HT29), 7000 (PANC-1) or 8000 (LoVo) cells/well. The following day, cells were treated in triplicate with the relevant drugs at the indicated concentrations for 1 h. Next, 5 μg/mL Hoechst 33342 was added to the wells, and plates incubated at 37 °C for 30 min^−1 h. Cells were washed with cold PBS, treatments re-added and plates re-incubated at 37 °C for 30 min to 1 h. Plates were analyzed using a Celigo® (Nexcelom Bioscience, Lawrence, MA, USA) imaging cytometer. Data are expressed as percentages of fluorescence intensity, calculated through the following formula: % fluorescence intensity=Mean fluorescence intensity of sample/Mean fluorescence intensity of parental control×100
Fluorescent images were captured with an Olympus® IX71/TH4-200 microscope equipped with an Olympus® DP72 camera (Shinjuku, Tokyo, Japan), and cells were seeded at a 1.5 × 10^5 cells/well density and treated as described above.

human UGT1A1 enzyme = molecular target: T1, human UGT1A1 enzyme (Homo sapiens, UniProt P22309); assay: Inhibition of UGT1A1 glucuronidation activity (recombinant enzyme); assay type: biochemical; conditions: SCO-101 0.003–1 µM
T1 sequence (P22309 26-533): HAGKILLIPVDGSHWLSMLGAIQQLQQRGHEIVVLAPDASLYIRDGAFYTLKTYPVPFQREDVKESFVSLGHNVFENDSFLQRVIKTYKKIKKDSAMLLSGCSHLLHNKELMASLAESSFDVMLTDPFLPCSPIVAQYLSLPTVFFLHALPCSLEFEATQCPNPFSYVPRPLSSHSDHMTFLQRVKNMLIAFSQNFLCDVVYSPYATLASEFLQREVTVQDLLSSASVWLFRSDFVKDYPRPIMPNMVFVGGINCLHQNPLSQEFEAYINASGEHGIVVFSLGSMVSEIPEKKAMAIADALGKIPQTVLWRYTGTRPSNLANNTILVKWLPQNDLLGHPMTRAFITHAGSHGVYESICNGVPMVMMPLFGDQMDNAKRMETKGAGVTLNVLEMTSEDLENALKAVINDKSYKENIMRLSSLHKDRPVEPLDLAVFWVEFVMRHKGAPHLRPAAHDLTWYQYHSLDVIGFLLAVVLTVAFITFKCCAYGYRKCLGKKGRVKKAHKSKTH
Description: The inhibition potency of SCO-101 towards the human UGT1A1 enzyme was studied using recombinant human enzymes and the two different probe substrates β-estradiol (10 μM) and SN-38 (10 μM). Additionally, a positive control inhibitor at a single concentration (10 μM ketoconazole) and a solvent control were employed. Reactions were conducted at 37 °C after a 10 min pre-incubation at 37 °C in incubation buffer (10 mM Tris-HCl, pH 7.4, 5 mM MgCl2, […] alamethicin) and started by adding 5 mM UDPGA. Reactions were terminated after 30 min by adding an equal volume of ice-cold acetonitrile with 1% formic acid and 0.5 μM caffeine. The level of the UGT-specific probe glucuronidation was monitored by LC/MS-MS, and inhibition was observed as a reduced level of metabolite formation of the substrate.

SCH cells = assay: Cell viability assay (CellTiter-Glo), SCH; assay type: cell-based; conditions: 96 h
Description: as §1
(§2) For SCH, SNU-5, and MKN45 cells, 50 μL of CellTiter-Glo® Reagent (Promega; Madison, WI, USA) was added to each well at the end of the treatments. The content was mixed for 5 min to facilitate cell lysis and plates incubated at room temperature for 10 min to stabilize luminescent signals, which were then recorded using an EnVision Multi Label Reader (PerkinElmer; Waltham, MA, USA).
(§3) Background values were subtracted prior to further analysis. The percentage of cell viability was expressed as relative values versus untreated cells as determined by the various assays. EC50/IC50 values were calculated using GraphPad Prism (v10.4.1) and the in-built non-linear regression [log (inhibitor) vs. response—variable slope (four parameters)] calculation. […] Synergy scores were calculated using the ZIP model, which takes the advantages of both the Loewe additivity and the Bliss independence models, aiming at a systematic assessment of various types of drug interaction patterns that may arise in a high-throughput drug combination screening.

SNU-5 cells = assay: Cell viability assay (CellTiter-Glo), SNU-5; assay type: cell-based; conditions: Homo sapiens, 96 h
Description: as §1, §2, §3

MKN45 cells = assay: Cell viability assay (CellTiter-Glo), MKN45; assay type: cell-based; conditions: Homo sapiens, MKN-45, 96 h
Description: as §1, §2, §3

[1] = set-up: method as in PMID 32628359; conditions: four independent Phase I studies; cited from earlier work
MDR1/ABCB1 = MDR1/ABCB1 (Homo sapiens, UniProt P08183); assay: Bidirectional transport of digoxin across Caco-2 cell monolayers; assay type: cell-based; set-up: endogenous in cells; host or cells: Caco-2; conditions: Caco-2 monolayers, 50 µM SCO-101
Chain of MDR1/ABCB1 (P08183 whole entry): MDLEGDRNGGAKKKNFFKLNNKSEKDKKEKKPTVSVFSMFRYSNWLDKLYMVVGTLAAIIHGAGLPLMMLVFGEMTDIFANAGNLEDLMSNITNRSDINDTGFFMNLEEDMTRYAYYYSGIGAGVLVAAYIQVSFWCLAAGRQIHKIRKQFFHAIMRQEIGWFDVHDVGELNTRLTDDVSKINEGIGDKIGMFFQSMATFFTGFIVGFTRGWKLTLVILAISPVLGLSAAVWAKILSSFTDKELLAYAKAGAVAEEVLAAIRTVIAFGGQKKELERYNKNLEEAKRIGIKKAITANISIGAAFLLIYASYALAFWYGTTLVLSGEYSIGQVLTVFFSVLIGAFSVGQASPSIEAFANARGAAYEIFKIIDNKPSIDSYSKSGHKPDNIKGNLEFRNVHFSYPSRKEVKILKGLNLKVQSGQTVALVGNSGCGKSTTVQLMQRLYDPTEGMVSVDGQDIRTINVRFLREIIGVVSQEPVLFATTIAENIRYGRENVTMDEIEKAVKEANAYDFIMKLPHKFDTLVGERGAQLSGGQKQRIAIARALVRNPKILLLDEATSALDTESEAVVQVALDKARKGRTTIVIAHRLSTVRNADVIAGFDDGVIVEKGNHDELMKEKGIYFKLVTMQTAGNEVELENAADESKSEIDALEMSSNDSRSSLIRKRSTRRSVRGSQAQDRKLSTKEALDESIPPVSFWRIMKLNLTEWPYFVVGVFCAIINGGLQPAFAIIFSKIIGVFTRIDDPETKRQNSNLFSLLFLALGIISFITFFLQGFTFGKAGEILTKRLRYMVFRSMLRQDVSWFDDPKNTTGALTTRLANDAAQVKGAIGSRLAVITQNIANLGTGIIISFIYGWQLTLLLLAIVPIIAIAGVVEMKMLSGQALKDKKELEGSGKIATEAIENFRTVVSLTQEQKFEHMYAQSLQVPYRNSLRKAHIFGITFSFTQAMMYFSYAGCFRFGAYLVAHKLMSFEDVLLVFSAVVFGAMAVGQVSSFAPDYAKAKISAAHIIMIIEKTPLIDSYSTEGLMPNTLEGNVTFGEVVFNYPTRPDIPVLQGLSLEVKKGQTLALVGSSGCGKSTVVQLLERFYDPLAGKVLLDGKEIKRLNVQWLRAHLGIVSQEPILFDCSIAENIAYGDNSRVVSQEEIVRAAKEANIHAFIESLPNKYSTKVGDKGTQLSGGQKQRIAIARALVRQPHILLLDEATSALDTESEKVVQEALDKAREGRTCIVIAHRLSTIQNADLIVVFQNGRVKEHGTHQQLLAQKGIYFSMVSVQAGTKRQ
Description: Bidirectional transport experiments (basolateral-to-apical and apical-to-basolateral) with the ABCG2 substrate estrone-3-sulfate and the MDR1/ABCB1 substrate digoxin were performed in Caco-2 cell monolayers as previously described.

With `O=C(Nc1cc(C(F)(F)F)cc(C(F)(F)F)c1)Nc1ccc(Br)cc1-c1nnn[nH]1` [SCO-101, N-[4-Bromo-2-(1H-1,2,3,4-tetrazol-5-yl)phenyl]-N′-[3,5-bis(trifluoromethyl)phenyl]urea] the IC50 (HT29SN-38 cells; Homo sapiens, HT-29, 72 h) was over 25 µM, the “cell viability, SCO-101 in combination with SN-38” value (HT29SN-38 cells; SCO-101 0–50 µM + SN-38 0.08 μM) was “re-sensitization” and the “cell viability after 24 h combination treatment and drug washout” value (HT29SN-38 cells; SCO-101 15 μM + SN-38 0.5 μM, washout 48 h or 120 h) was “significant cytotoxic effect”. The “cell viability after 24 h single treatment and drug washout” value (HT29SN-38 cells; SCO-101 15 μM or SN-38 0.5 μM alone, washout 48 h or 120 h) was “did not affect cell viability”, the H33342 dye accumulation (HT29PAR cells) was “No change” and the IC50 (human UGT1A1 enzyme; substrate SN-38 10 μM, read-out: IC50, UGT1A1 glucuronidation of SN-38) was 0.1 µM. The IC50 (human UGT1A1 enzyme; substrate β-estradiol 10 μM, read-out: IC50, UGT1A1 glucuronidation of β-estradiol) was 0.28 µM, the IC50 (SCH cells) was over 50 µM and the IC50 (SNU-5 cells) was over 50 µM. For the same molecule, the IC50 (MKN45 cells) was over 50 µM, the toxicity [1] was “low SCO-101 toxicity” and the “transport of the MDR1/ABCB1 substrate digoxin” value (MDR1/ABCB1) was “only a limited difference”.
